Measurements reported in patent US20160052936A1, “SPIROINDOLINE DERIVATIVES FOR USE AS GONADOTROPIN-RELEASING HORMONE RECEPTOR ANTAGONISTS” (BAYER PHARMA AKTIENGESELLSCHAFT, priority 2013, published 2016).

Target: T1, human GnRH receptor (Homo sapiens, UniProt P30968)
T1 construct: host or cells: CHO cells stably expressing human GnRH receptor (line established by Prof. Thomas Gudermann)
T1 sequence (P30968 1-328): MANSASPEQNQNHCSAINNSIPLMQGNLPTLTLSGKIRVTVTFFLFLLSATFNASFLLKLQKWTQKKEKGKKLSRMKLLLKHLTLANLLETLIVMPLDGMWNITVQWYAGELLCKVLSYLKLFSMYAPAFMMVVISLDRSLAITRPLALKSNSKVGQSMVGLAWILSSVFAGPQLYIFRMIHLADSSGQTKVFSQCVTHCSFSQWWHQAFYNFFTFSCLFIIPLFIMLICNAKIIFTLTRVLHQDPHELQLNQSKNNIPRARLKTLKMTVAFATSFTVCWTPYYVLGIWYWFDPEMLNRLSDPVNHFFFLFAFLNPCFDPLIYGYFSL
Test: IP-One HTRF assay with buserelin stimulation
Type: cell-based
Conditions: CHO cells stably expressing human GnRH receptor; buserelin at EC80; read-out: Potency in IP-One HTRF assay with buserelin (at EC80) stimulation, given as IC50
Source text: By using homogenous time-resolved fluorescence resonance energy transfer (HTRF), the generation of one component of the GnRH-R signalling cascade can be measured. After stimulation of CHO cells stably expressing human GnRH receptor (established by Prof. Thomas Gudermann, currently University of Marburg, Germany; supplied as frozen cell aliquots by Cell Culture Services, Hamburg, Germany) with the EC80 of the GnRH agonist buserelin, Gq protein-coupled receptor signalling cascade is activated resulting in PLC-dependent cleavage of PIP2 to Inositol-1,4,5-triphosphate (IP3) and Diacylglycerol. The second messenger IP3 is degraded intracellularly to myo-inositol. Inhibition of the final degradation step from Inositol-1-phosphate (IP1) to myo-inositol by addition of lithium chloride leads to accumulation of IP1 in the cells. In cell lysates, IP1 can be detected via an antibody-based HTRF detection technology, where IP1 can displace the FRET acceptor IP1-d2 from binding by Terbium-labelled anti-IP1 antibody as donor resulting in a signal decrease. Compounds were tested for their capability of inhibiting GnRH-R activation by buserelin. For all IP-One HTRF® assays reagents of Cisbio Bioassays (IP-One Tb Jumbo kit, #62IPAPEJ; Cisbio Bioassays, Bagnols sur Cèze Cedex, France) were used.
For the assay, frozen cell aliquots were thawed and a cell suspension (3.33×10^6 cells/mL) containing IP1-d2 (dilution 1:40) was prepared and incubated at 37° C. After 1 h 3 μl of the cell suspension were added to 50 nl of a 100-fold concentrated solution of the test compound in DMSO pre-dispensed in a well of a white low-volume 384-well microtiter plate (Greiner Bio-One, Frickenhausen, Germany). […] Plates were incubated for 1 h at 37° C. and 5% carbon dioxide before the cells were lysed by adding 3 μl Terbium-labelled anti-IP1 antibody (1:40) diluted in Conjugate & Lysis buffer as supplied with the kit. After an incubation for 1 h at 22° C. to enable complete cell lysis and antibody binding to free IP1 or IP1-d2, plates were measured in an HTRF reader, e.g. a RUBYstar, PHERAstar (both BMG Labtechnologies, Offenburg, Germany) or a Viewlux (PerkinElmer LAS, Rodgau-Jügesheim, Germany).
From the fluorescence emissions at 665 nm (FRET) and at 620 nm (background signal of Terbium-antibody), the ratio (emission at 665 nm divided by emission at 620 nm) was calculated and the data were normalized (reaction without test compound=0% inhibition; all other assay components except agonist=100% inhibition). On the same microtiter plate, compounds were tested at 10 different concentrations in the range of 20 μM to 1 nM (20 μM, 6.7 μM, 2.2 μM, 0.74 μM, 0.25 μM, 82 nM, 27 nM, 9.2 nM, 3.1 nM and 1 nM; dilution series prepared before the assay at the level of the 100-fold conc. stock solutions by serial 1:3 dilutions in 100% DMSO) in duplicate values for each concentration. By using an in-house software, the IC50 values were calculated by a 4 parameter fit.
Within the meaning of the present invention the antagonist activity is reflected by the ability of a compound of the invention to antagonize human GnRH receptor stimulation in IP-One HTRF® assay at least three times the standard deviation over the background level.

| Compound | IC50 [nM] |
| --- | --- |
| N#Cc1ccc(S(=O)(=O)N2c3ccc(C(=O)NCc4ncc(C(F)(F)F)cc4F)cc3C3(CCS(=O)(=O)CC3)C2C2CC2)cc1 (racemic) [Example 7, 1-[(4-cyanophenyl)sulfonyl]-2-cyclopropyl-N-{[3-fluoro-5-(trifluoromethyl)pyridin-2-yl]methyl}-1,2,2′,3′,5′,6′-hexahydrospiro[indole-3,4′-thiopyran]-5-carboxamide 1′,1′-dioxide] | 69 |
| COc1cccc(S(=O)(=O)N2c3ccc(C(=O)NCc4ncc(C(F)(F)F)cc4F)cc3C3(CCS(=O)(=O)CC3)C2C2CC2)c1 (racemic) [Example 6, 2-cyclopropyl-N-{[3-fluoro-5-(trifluoromethyl)pyridin-2-yl]methyl}-1-[(3-methoxyphenyl)sulfonyl]-1,2,2′,3′,5′,6′-hexahydrospiro[indole-3,4′-thiopyran]-5-carboxamide 1′,1′-dioxide] | 231 |
| O=C(NCc1ncc(C(F)(F)F)cc1Cl)c1ccc2c(c1)C1(CCS(=O)(=O)CC1)C(C1CC1)N2S(=O)(=O)c1ccc(OC(F)F)cc1 (racemic) [Example 16, N-{[3-chloro-5-(trifluoromethyl)pyridin-2-yl]methyl}-2-cyclopropyl-1-{[4-(difluoromethoxy)phenyl]sulfonyl}-1,2,2′,3′,5′,6′-hexahydrospiro[indole-3,4′-thiopyran]-5-carboxamide 1′,1′-dioxide] | 37 |
| NC(=O)c1ccc(S(=O)(=O)N2c3ccc(C(=O)NCc4ncc(C(F)(F)F)cc4Cl)cc3C3(CCS(=O)(=O)CC3)C2C2CC2)cc1 (single isomer, unassigned) [Example 17.1] | > 20000 |
| N#Cc1ccc(S(=O)(=O)N2c3ccc(C(=O)NCc4ncc(C(F)(F)F)cc4F)cc3C3(CCS(=O)(=O)CC3)C2C2CC2)cc1 (single isomer, unassigned) [Example 7.2] | 57 |
| O=C(NCc1ncc(C(F)(F)F)cc1Cl)c1ccc2c(c1)C1(CCS(=O)(=O)CC1)C(C1CC1)N2S(=O)(=O)c1ccc(F)cc1 (racemic) [Example 3, N-{[3-chloro-5-(trifluoromethyl)pyridin-2-yl]methyl}-2-cyclopropyl-1-[(4-fluorophenyl)sulfonyl]-1,2,2′,3′,5′,6′-hexahydrospiro[indole-3,4′-thiopyran]-5-carboxamide 1′,1′-dioxide] | 53 |
| Cc1cnc(CNC(=O)c2ccc3c(c2)C2(CCS(=O)(=O)CC2)C(C2CC2)N3S(=O)(=O)c2ccc(F)cc2)c(C(F)(F)F)c1 (racemic) [Example 5, 2-cyclopropyl-1-[(4-fluorophenyl)sulfonyl]-N-{[5-methyl-3-(trifluoromethyl)pyridin-2-yl]methyl}-1,2,2′,3′,5′,6′-hexahydrospiro[indole-3,4′-thiopyran]-5-carboxamide 1′,1′-dioxide] | 864 |
| N#Cc1cccc(S(=O)(=O)N2c3ccc(C(=O)NCc4ncc(C(F)(F)F)cc4Cl)cc3C3(CCS(=O)(=O)CC3)C2C2CC2)c1 (racemic) [Example 10, N-{[3-chloro-5-(trifluoromethyl)pyridin-2-yl]methyl}-1-[(3-cyanophenyl)sulfonyl]-2-cyclopropyl-1,2,2′,3′,5′,6′-hexahydrospiro[indole-3,4′-thiopyran]-5-carboxamide 1′,1′-dioxide] | 29 |
| O=C(NCc1ncc(C(F)(F)F)cc1F)c1ccc2c(c1)C1(CCS(=O)(=O)CC1)C(C1CC1)N2S(=O)(=O)c1ccc(Cl)cc1 (racemic) [Example 18, 1-[(4-chlorophenyl)sulfonyl]-2-cyclopropyl-N-{[3-fluoro-5-(trifluoromethyl)pyridin-2-yl]methyl}-1,2,2′,3′,5′,6′-hexahydrospiro[indole-3,4′-thiopyran]-5-carboxamide 1′,1′-dioxide] | 65 |
| O=C(NCc1ncc(C(F)(F)F)cc1Cl)c1ccc2c(c1)C1(CCS(=O)(=O)CC1)C(C1CC1)N2S(=O)(=O)c1cccc(OC(F)(F)F)c1 (racemic) [Example 12, N-{[3-chloro-5-(trifluoromethyl)pyridin-2-yl]methyl}-2-cyclopropyl-1-{[3-(trifluoromethoxy)phenyl]sulfonyl}-1,2,2′,3′,5′,6′-hexahydrospiro[indole-3,4′-thiopyran]-5-carboxamide 1′,1′-dioxide] | 219 |
| O=C(NCc1ncc(C(F)(F)F)cc1F)c1ccc2c(c1)C1(CCS(=O)(=O)CC1)C(C1CC1)N2S(=O)(=O)c1ccc(OC(F)F)cc1 (racemic) [Example 15, 2-cyclopropyl-1-{[4-(difluoromethoxy)phenyl]sulfonyl}-N-{[3-fluoro-5-(trifluoromethyl)pyridin-2-yl]methyl}-1,2,2′,3′,5′,6′-hexahydrospiro[indole-3,4′-thiopyran]-5-carboxamide 1′,1′-dioxide] | 112 |
| O=C(NCc1ncc(C(F)(F)F)cc1Cl)c1ccc2c(c1)C1(CCS(=O)(=O)CC1)C(C1CC1)N2S(=O)(=O)c1ccc(Cl)cc1 (racemic) [Example 19, 1-[(4-chlorophenyl)sulfonyl]-N-{[3-chloro-5-(trifluoromethyl)pyridin-2-yl]methyl}-2-cyclopropyl-1,2,2′,3′,5′,6′-hexahydrospiro[indole-3,4′-thiopyran]-5-carboxamide 1′,1′-dioxide] | 31 |
| O=C(NCc1ncc(C(F)(F)F)cc1Cl)c1ccc2c(c1)C1(CC[S+]([O-])CC1)C(C1CC1)N2S(=O)(=O)c1ccc(F)cc1 (mixture of isomers) [Example 2, N-{[3-chloro-5-(trifluoromethyl)pyridin-2-yl]methyl}-2-cyclopropyl-1-[(4-fluorophenyl)sulfonyl]-1,2,2′,3′,5′,6′-hexahydrospiro[indole-3,4′-thiopyran]-5-carboxamide 1′-oxide] | 27 |
| O=C(NCc1ncc(C(F)(F)F)cc1F)c1ccc2c(c1)C1(CCS(=O)(=O)CC1)[C@@H](C1CC1)N2S(=O)(=O)c1ccc(F)cc1 (single isomer, unassigned) [Example 1.2] | 6990 |
| N#Cc1cccc(S(=O)(=O)N2c3ccc(C(=O)NCc4ncc(C(F)(F)F)cc4F)cc3C3(CCS(=O)(=O)CC3)C2C2CC2)c1 (racemic) [Example 9, 1-[(3-cyanophenyl)sulfonyl]-2-cyclopropyl-N-{[3-fluoro-5-(trifluoromethyl)pyridin-2-yl]methyl}-1,2,2′,3′,5′,6′-hexahydrospiro[indole-3,4′-thiopyran]-5-carboxamide 1′,1′-dioxide] | 311 |
| O=C(NCc1ncc(C(F)(F)F)cc1F)c1ccc2c(c1)C1(CCS(=O)(=O)CC1)C(C1CC1)N2S(=O)(=O)c1cccc(OC(F)F)c1 (racemic) [Example 13, 2-cyclopropyl-1-{[3-(difluoromethoxy)phenyl]sulfonyl}-N-{[3-fluoro-5-(trifluoromethyl)pyridin-2-yl]methyl}-1,2,2′,3′,5′,6′-hexahydrospiro[indole-3,4′-thiopyran]-5-carboxamide 1′,1′-dioxide] | 423 |
| O=C(NCc1ncc(C(F)(F)F)cc1F)c1ccc2c(c1)C1(CCS(=O)(=O)CC1)C(C1CC1)N2S(=O)(=O)c1ccc(Cl)cc1 (single isomer, unassigned) [Example 18.1] | 31 |
| O=C(NCc1ncc(C(F)(F)F)cc1F)c1ccc2c(c1)C1(CCS(=O)(=O)CC1)C(C1CC1)N2S(=O)(=O)c1cccc(OC(F)(F)F)c1 (racemic) [Example 11, 2-cyclopropyl-N-{[3-fluoro-5-(trifluoromethyl)pyridin-2-yl]methyl}-1-{[3-(trifluoromethoxy)phenyl]sulfonyl}-1,2,2′,3′,5′,6′-hexahydrospiro[indole-3,4′-thiopyran]-5-carboxamide 1′,1′-dioxide] | 760 |
